Test results: patent US20260166141A1, “PHARMACEUTICAL COMPOSITION OF RIP2 INHIBITOR IN COMBINATION WITH IMMUNE CHECKPOINT INHIBITOR AND USE THEREOF” (NINGBO COMBIREG PHARMACEUTICAL TECHNOLOGY CO., LTD., priority 2022, published 2026)

Assays:
Assay type in all cases: in vivo
colorectal cancer (MC38) [1] = experiment: colorectal cancer (MC38) tumor-bearing model in C57BL/6 mice, GSK583 combined with atezolizumab; conditions: for tumor growth (tumor volume progression): atezolizumab 150 μg/mouse i.p. Days 0, 4, 11, GSK583 1 mg/kg i.v. once every 4 days, 4 doses, compared to IgG control
Protocol: (§1) Test substances atezolizumab (Roche) and IgG control antibody (in VivoMAb human IgG1 isotype control; BioXCell, BE0297) were prepared in saline. GSK583 was formulated as a 20× stock solution in DMSO and diluted to the dosing concentration with saline containing 5% polyoxyl 35 castor oil (Cremophor EL) before use.
(§2) Experimental animals and tumor lines: SPF-grade male wild-type C57BL/6 mice (6 to 8 weeks old, 20 to 25 g) were purchased from the Laboratory Animal Resources Center, Tsinghua University. The cells used in the experiment were murine colorectal cancer cells (MC38), which were purchased from the Cell Bank of Peking Union Medical College.
According to the method shown in (A and B of FIG. 3), the mice were subcutaneously inoculated with MC38 cells at a concentration of 5×10^6 cells/mL and 0.1 mL/mouse. When the tumor grew to a volume within the range of 100 mm^3, the mice were randomly divided into 4 groups based on tumor volume, with 6 to 8 mice per group, and dosing was initiated. The dosing regimen was as follows: (i) blank control (IgG control, 150 μg/mouse) group; (ii) GSK583 (1 mg/kg) group; (iii) atezolizumab (150 μg/mouse) group; (iv) atezolizumab (150 μg/mouse)+GSK583 (1 mg/kg). GSK583 was administered via intravenous injection once every 4 days for a total of 4 doses; IgG control and atezolizumab were administered via intraperitoneal injection on Days 0, 4, and 11 for a total of 3 doses. The day of grouping and dosing was recorded as Day 0. During the dosing process, the animals were weighed every 2 to 3 days, and the long and short diameters of the tumor were measured with a vernier caliper. The tumor size was calculated by the formula: (½)×long diameter×(short diameter)^2. The experiment was terminated on Day 15. After the mice were euthanized and dissected, the tumor was removed and weighed, and the tumor inhibition rate was calculated.

colorectal cancer (MC38) [2] = experiment: colorectal cancer (MC38) tumor-bearing model in WT and RIP2−/− C57BL/6 mice, atezolizumab; conditions: for tumor growth (tumor volume progression): 150 μg/mouse i.p. Days 0, 4, 11, 18; for tumor weight: compared to corresponding control group
Protocol: Test substances atezolizumab (Roche) and IgG control antibody (in VivoMAb human IgG1 isotype control; BioXCell, BE0297) were prepared in saline. Experimental animals and tumor lines: SPF-grade male wild-type (WT) C57BL/6 mice (20 to 25 g) and RIP2 knockout (RIP2^−/−) mice (6 to 8 weeks old, 20 to 25 g) were purchased from Shanghai Model Organisms Center, Inc. The mice were generated using CRISPR-Cas9 technology and bred at the Laboratory Animal Resources Center, Tsinghua University. The cells used in the experiment were murine colorectal cancer cells (MC38), which were purchased from the Cell Bank of Peking Union Medical College.
According to the method shown in (A and B of FIG. 1), the mice were subcutaneously inoculated with MC38 cells at a concentration of 5×10^6 cells/mL and 0.1 mL/mouse. When the tumor grew to a volume within the range of 100 mm^3, WT mice and RIP2^−/− mice were randomly divided into 2 groups based on tumor volume, with 6 to 8 mice per group, and dosing was initiated. The dosing regimen was as follows: (i) WT-blank control (WT-IgG control, 150 μg/mouse) group; (ii) WT-atezolizumab (150 μg/mouse) group; (iii) RIP2^−/−-blank control (RIP2^−/−-IgG control, 150 μg/mouse) group; (iv) RIP2^−/−-atezolizumab (150 μg/mouse) group. IgG control and atezolizumab were administered via intraperitoneal injection on Days 0, 4, 11, and 18 for a total of 4 doses. The day of grouping and dosing was recorded as Day 0. During the dosing process, the animals were weighed every 2 to 3 days, and the long and short diameters of the tumor were measured with a vernier caliper. The tumor size was calculated by the formula: (1/2)×long diameter×(short diameter)^2. The experiment was terminated on Day 20. After the mice were euthanized and dissected, the tumor was removed and weighed, and the tumor inhibition rate was calculated by the formula: [([…])/average tumor weight of the control group]×100%.

colorectal cancer (MC38) [3] = experiment: colorectal cancer (MC38) tumor-bearing model in C57BL/6 mice, GSK583 combined with pembrolizumab; conditions: Day 20; pembrolizumab 150 μg/mouse i.p.; GSK583 1 mg/kg i.v. once every 4 days; compared to IgG control
Protocol: as §1, with “pembrolizumab (Merck & Co., Inc.)” for “atezolizumab (Roche)”
as §2
According to the method shown in (A and B of FIG. 7), the mice were subcutaneously inoculated with MC38 cells at a concentration of 5×10^6 cells/mL and 0.1 mL/mouse. When the tumor grew to a volume within the range of 100 mm^3, the mice were randomly divided into 3 groups based on tumor volume, with 6 to 7 mice per group, and dosing was initiated. […] The day of grouping and dosing was recorded as Day 0. During the dosing process, the animals were weighed every 2 to 3 days, and the long and short diameters of the tumor were measured with a vernier caliper. The tumor size was calculated by the formula: (½)×long diameter×(short diameter)^2. […]

Compound | tumor growth (tumor volume progression) (colorectal cancer (MC38) [1]) | tumor weight (colorectal cancer (MC38) [1]; end of dosing (Day 15), compared to control group) | inhibitory effect on tumor growth, RIP2−/− mice compared to WT mice (colorectal cancer (MC38) [2]; 150 μg/mouse i.p., tumor volume) | tumor growth (tumor volume progression) (colorectal cancer (MC38) [2]; RIP2−/− mice, compared to RIP2−/−-IgG control) | tumor weight (colorectal cancer (MC38) [2]; RIP2−/− mice, end of dosing (Day 20)) | tumor growth (tumor volume progression) (colorectal cancer (MC38) [2]; WT mice, compared to WT-IgG control) | tumor weight (colorectal cancer (MC38) [2]; WT mice, end of dosing (Day 20)) | anti-tumor effect (tumor weight, tumor weight inhibition rate), RIP2−/− mice compared to WT mice (colorectal cancer (MC38) [2]; end of dosing (Day 20)) | tumor growth (tumor volume progression) (colorectal cancer (MC38) [3])
CC(C)(C)S(=O)(=O)c1ccc2nccc(Nc3n[nH]c4ccc(F)cc34)c2c1 [GSK583] | no significant inhibitory effect on tumor growth |  |  |  |  |  |  |  | 
atezolizumab: programmed death-ligand 1 (PD-L1) inhibitor, atezolizumab (Roche) | significantly inhibited tumor growth | significantly lower than that in the control group | significantly improved | significantly inhibited tumor growth | significantly reduced tumor weight | significantly inhibited tumor growth | significantly reduced tumor weight | significantly stronger than that in WT mice | 
pembrolizumab: programmed death 1 (PD-1) inhibitor, pembrolizumab (Merck & Co., Inc.) |  |  |  |  |  |  |  |  | significantly inhibited tumor growth
